Measured values published in patent US20110082114A1, “Methods of Treating Aneurysmal Dilatation, Blood Vessel Wall Weakness and Specifically Abdominal Aortic and Thoracic Aneurysm Using Matrix Metalloprotease-2 Inhibitors” (SYMPHONY EVOLUTION, INC., priority 2009, published 2011).
Values belong to the compound of their own block, whether it stands above or below them.

Experiments:
[1] = tested on: C57/B16 mice, elastase-perfused abdominal aorta; experiment: Elastase-perfusion mouse model of AAA, aortic diameter; assay type: in vivo; conditions: for mean % ΔAD (increase in aortic diameter at 2 weeks): daily gavage in Cremophor, Mean±SE
Excerpt: All mice used in the experiment were commercially obtained C57/B16 inbred strain mice. Throughout the experimental course, mice were allowed free access to food and water. Animals were housed in a controlled animal facility, and all mouse care and treatment occurred under approved protocols.
A total of 89 C57/B16 mice were subjected to transient perfusion of the abdominal aorta according to a protocol known in the art. Briefly, after sedation and preparation, the aorta was approached through a midline laparotomy. The infrarenal aorta was dissected and the diameter was measured under physiologic blood pressure. A segment of infrarenal aorta was isolated and a 5 minute perfusion of this segment was performed through an arteriotomy at 100 mmHg with a solution containing type I porcine pancreatic elastase (PPE 0.16 U/mL). All of the experiments were performed with a single PPE preparation derived from the same commercial source and lot.
Following aortic perfusion the arteriotomy was repaired, the laparotomy was closed and the animal was allowed to completely recover before returning to its standard housing.
Following aortic perfusion, animals were placed into one of 5 treatment groups. […] Three different doses of the agent were used, 50 mg/kg/day (n=17), 125 mg/kg/day (n=17), and 250 mg/kg/day (n=18). There were two mice in each group which died following aortic perfusion, and all others were available for analysis. Control animals (n=18) were similarly treated with daily gavage of the Cremophor diluent only. Of these mice, 16 survived the two weeks following aortic perfusion and underwent final aortic measurements and harvest. […] In this group, 4 mice died prior to the two week harvest, and all others were used in the analysis of aneurysm growth.
Two weeks following elastase perfusion, the mice were again anesthetized; the laparotomy incision was reopened and the final aortic diameter was measured in vivo prior to sacrifice. The animals were humanely sacrificed, and circulating blood and the entire perfused segment of aorta was harvested for RNA extraction, protein extraction or histology.

[2] = tested on: C57/B16 mice, elastase-perfused abdominal aorta; experiment: Elastase-perfusion mouse model of AAA, aortic histology; assay type: in vivo; conditions: 50, 125, 250 mg/kg/day
Method: The aortas from several mice from each experimental group were perfusion fixed with 10% neutral-buffered formalin, removed, and placed in additional formalin for a minimum of 24 hours prior to processing for paraffin embedding. Following paraffin embedding, aortic specimens were cut into 5 μm sections and mounted on glass slides. Each specimen was stained with hematoxylin and eosin to evaluate inflammatory cell infiltration and Accustain® Elastic Stain kit to assess the degree of elastin degradation. Photomicrographs of serial sections were obtained using an Olympus BX60 light microscope equipped with CV12 video capture camera.
Representative aortas from each group were fixed in formalin following aortic harvest and processed into paraffin blocks. During harvest only the maximally dilated segment of the aorta was taken, and serial sections of the block were made to assure that the most dilated segment of aorta was imaged. These maximally dilated segments were stained with Hematoxylin and Eosin stains as well as an elastin highlighting stain (Verhoff-Von Giesen [VVG]).

mADAM-10 or hADAM-10 = molecular target: T1, mADAM-10 or hADAM-10 (UniProt O14672); experiment: ADAM-10 enzyme assay (fluorogenic peptide cleavage); assay type: biochemical;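 further: fluorescence from cleavage of a quenched 10-residue DABCYL/EDANS peptide by 5 nM enzyme in HEPES pH 8.0 buffer, 16 hr at room temperature, compounds serially diluted 100 µM to 0.5 nM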
T1 sequence (O14672 1-748): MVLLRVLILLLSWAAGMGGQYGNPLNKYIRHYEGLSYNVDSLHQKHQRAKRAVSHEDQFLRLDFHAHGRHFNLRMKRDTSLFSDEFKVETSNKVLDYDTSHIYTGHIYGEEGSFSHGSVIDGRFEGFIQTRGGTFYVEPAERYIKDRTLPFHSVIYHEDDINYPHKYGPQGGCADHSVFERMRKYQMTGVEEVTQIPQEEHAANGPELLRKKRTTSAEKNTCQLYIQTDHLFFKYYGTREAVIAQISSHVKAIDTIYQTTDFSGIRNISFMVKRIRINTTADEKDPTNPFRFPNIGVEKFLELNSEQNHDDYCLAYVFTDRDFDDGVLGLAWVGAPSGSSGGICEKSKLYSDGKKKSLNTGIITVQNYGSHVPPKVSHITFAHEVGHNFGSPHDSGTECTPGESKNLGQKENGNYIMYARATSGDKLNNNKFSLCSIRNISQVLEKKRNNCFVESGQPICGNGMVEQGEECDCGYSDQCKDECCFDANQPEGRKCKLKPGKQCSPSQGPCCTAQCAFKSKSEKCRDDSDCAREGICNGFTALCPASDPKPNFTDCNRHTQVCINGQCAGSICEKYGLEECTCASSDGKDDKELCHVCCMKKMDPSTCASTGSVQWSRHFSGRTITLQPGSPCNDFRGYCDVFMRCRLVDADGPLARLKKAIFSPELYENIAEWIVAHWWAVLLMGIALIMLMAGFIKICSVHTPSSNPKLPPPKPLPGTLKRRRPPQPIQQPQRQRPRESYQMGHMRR
Method: mADAM-10 or hADAM-10 activity was measured as the ability to cleave a 10-residue peptide (DABCYL-Leu-Leu-Ala-Gln-Lys-*-Leu-Arg-Ser-Ser-Arg-EDANS). […] Enzyme was diluted to a final active concentration of 5 nM in Buffer A (50 mM HEPES 8.0, 100 mM NaCl, 1 mM CaCl2 and 0.01% NP-40). Serial dilutions for compounds were performed ranging from 100 μM to 0.5 nM using a Beckman Biomek 2000 in polypropylene plates (Greiner). […] This reaction was incubated for 16 hr at RT and fluorescence was read using identical conditions.

Structure (SMILES): COCCOC(=O)N1CCN(S(=O)(=O)c2cc(F)c(Oc3ccc(Cl)cc3)c(F)c2)[C@@H](C(=O)NO)C1 [Entry 15]
mean % ΔAD (increase in aortic diameter at 2 weeks) ([1]; 125 mg/kg/day): 129.3±5.1%
animals which did not develop aneurysms ([1]; 250 mg/kg/day, daily gavage): 12%
mean % ΔAD (increase in aortic diameter at 2 weeks) ([1]; 250 mg/kg/day): 119.2±14.1%
aortic diameters at harvest compared with control animals ([1]; all doses (50, 125, 250 mg/kg/day)): significantly smaller than control animals
animals that developed maximal diameters greater than 100% ([1]; low (50 mg/kg/day) and intermediate (125 mg/kg/day) dose groups): All animals
mean % ΔAD (increase in aortic diameter at 2 weeks) ([1]; lowest dose (50 mg/kg/day)): 140.4±3.2%
degree of elastin damage and inflammatory cell inflammation versus dose [2]: inversely correlated with the dose of the agent administered

Structure (SMILES): O=C(O)CN1CCN(S(=O)(=O)c2cc(F)c(Oc3ccc(Cl)cc3)c(F)c2)[C@@H](C(=O)NO)C1 [Entry 63]
IC50 (mADAM-10 or hADAM-10): 50 to 1000 nM

Structure (SMILES): COCCOC(=O)N1CCN(S(=O)(=O)c2ccc(Oc3ccc(F)cc3)nc2)[C@@H](C(=O)NO)C1 [Entry 65]
IC50 (mADAM-10 or hADAM-10): 50 to 1000 nM

Structure (SMILES): C[C@H]1c2cccc(O)c2C(=O)C2=C(O)[C@]3(O)C(=O)C(C(N)=O)=C(O)[C@@H](N(C)C)[C@@H]3[C@@H](O)[C@@H]21 [doxycycline, reference compound]
animals not reaching the threshold designated for aneurysms (% ΔAD greater than 100%) ([1]; doxycycline in drinking water, 100 mg/kg/day): 13%
mean % ΔAD (percentage increase in aortic diameter at 2 weeks compared to baseline) ([1]; doxycycline in drinking water, 100 mg/kg/day, n=15, Mean±SE): 112.2±2.0%

Further lines, results first:

IC50 (mADAM-10 or hADAM-10): 50 to 1000 nM
Structure (SMILES): O=C(NO)[C@H]1CN(S(=O)(=O)Cc2cc(Cl)cc(Cl)c2)CCN1S(=O)(=O)c1cc(F)c(Oc2ccc(Cl)cc2)c(F)c1 [Entry 61]

IC50 (mADAM-10 or hADAM-10): 50 to 1000 nM
Structure (SMILES): C=CCN1CCN(S(=O)(=O)c2cc(F)c(Oc3ccc(Cl)cc3)c(F)c2)[C@@H](C(=O)NO)C1 [Entry 62]

IC50 (mADAM-10 or hADAM-10): < 50 nM
Structure (SMILES): COCCOC(=O)N1CCN(S(=O)(=O)c2ccc(Oc3ccc4c(c3)CCCC4)nc2)[C@@H](C(=O)NO)C1 [Entry 64]

IC50 (mADAM-10 or hADAM-10): < 50 nM
Structure (SMILES): COCCOC(=O)N1CCN(S(=O)(=O)c2ccc(-c3cccc(F)c3)nc2)[C@@H](C(=O)NO)C1 [Entry 66]
